Experimental data published in the supplement of paper PMC10307832.

Key:
Test in all cases: relative viability (nuclei count vs DMSO), 5 days (fraction); higher = more cells survive
Selisistat + Linsitinib = compound: C1CC(C2=C(C1)C3=C(N2)C=CC(=C3)Cl)C(=O)N [Selisistat] + C[C@]1(O)C[C@@H](c2nc(-c3ccc4ccc(-c5ccccc5)nc4c3)c3c(N)nccn32)C1 [Linsitinib] (partner 1 µM)
In short: (§1)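 Lung cancer cell lines were seeded in 1536-well plates and dosed by pin tool the next day, with either a single drug or a fixed anchor-drug dose combined with five library-drug doses (not always all listed) spaced in √10 steps. Five days later, one step fixed the cells and stained their nuclei (final 0.05% Triton X-100, 1% formaldehyde, 1 ug/ml Hoechst), and nuclei were counted on 4× images. Relative viability is the nuclei count in treated wells divided by the count in vehicle wells, and each value is the median of duplicate plates.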

Selisistat + Trametinib = compound: C1CC(C2=C(C1)C3=C(N2)C=CC(=C3)Cl)C(=O)N [Selisistat] + CC(=O)Nc1cccc(-n2c(=O)n(C3CC3)c(=O)c3c(Nc4ccc(I)cc4F)n(C)c(=O)c(C)c32)c1 [Trametinib] (partner 0.02 µM)
In short: as §1

Selisistat + Navitoclax = compound: C1CC(C2=C(C1)C3=C(N2)C=CC(=C3)Cl)C(=O)N [Selisistat] + CC1(C)CCC(c2ccc(Cl)cc2)=C(CN2CCN(c3ccc(C(=O)NS(=O)(=O)c4ccc(N[C@H](CCN5CCOCC5)CSc5ccccc5)c(S(=O)(=O)C(F)(F)F)c4)cc3)CC2)C1 [Navitoclax] (partner 0.5 µM)
In short: as §1

Selisistat + Palbociclib = compound: C1CC(C2=C(C1)C3=C(N2)C=CC(=C3)Cl)C(=O)N [Selisistat] + CC(=O)c1c(C)c2cnc(Nc3ccc(N4CCNCC4)cn3)nc2n(C2CCCC2)c1=O [Palbociclib] (partner 0.5 µM)
In short: as §1

Row | Cell Line | relative viability (Selisistat + Linsitinib; first compound 0.4 µM) | relative viability (Selisistat + Linsitinib; first compound 1.265 µM) | relative viability (Selisistat + Linsitinib; first compound 4 µM) | relative viability (Selisistat + Linsitinib; first compound 12.65 µM) | relative viability (Selisistat + Linsitinib; first compound 40 µM) | relative viability (Selisistat + Trametinib; first compound 0.4 µM) | relative viability (Selisistat + Trametinib; first compound 1.265 µM) | relative viability (Selisistat + Trametinib; first compound 12.65 µM) | relative viability (Selisistat + Trametinib; first compound 40 µM) | relative viability (Selisistat + Navitoclax; first compound 0.4 µM) | relative viability (Selisistat + Navitoclax; first compound 1.265 µM) | relative viability (Selisistat + Navitoclax; first compound 4 µM) | relative viability (Selisistat + Navitoclax; first compound 12.65 µM) | relative viability (Selisistat + Navitoclax; first compound 40 µM) | relative viability (Selisistat + Palbociclib; first compound 0.4 µM) | relative viability (Selisistat + Palbociclib; first compound 1.265 µM) | relative viability (Selisistat + Palbociclib; first compound 12.65 µM) | relative viability (Selisistat + Palbociclib; first compound 40 µM) | relative viability (Selisistat + Trametinib; first compound 4 µM) | relative viability (Selisistat + Palbociclib; first compound 4 µM)
1 | NCI-H1395 | 1.16 | 1.28 | 1.02 | 1 | 0.521 | 1.13 | 0.939 | 0.979 | 0.917 | 1.19 | 1.14 | 1.07 | 1.13 | 0.937 | 0.579 | 0.664 | 0.6 | 0.55 | – | –
2 | NCI-H1437 | 1.11 | 0.981 | 1.09 | 0.986 | 0.89 | 0.558 | 0.485 | 0.5 | 0.477 | 1.13 | 1.1 | 1.1 | 1.01 | 0.919 | 0.325 | 0.282 | 0.213 | 0.242 | 0.488 | 0.227
3 | NCI-H1651 | 0.936 | 0.898 | 1.02 | 1.05 | 0.849 | 0.855 | 0.871 | 0.842 | 0.817 | 0.902 | 0.974 | 0.934 | 1 | 0.945 | 0.508 | 0.532 | 0.474 | 0.517 | 0.799 | 0.499
4 | NCI-H1666 | 1.18 | 0.743 | 0.902 | 0.823 | 0.605 | 0.839 | 0.833 | 0.839 | 0.83 | 1.04 | 1.04 | 0.911 | 0.77 | 0.916 | 0.658 | 0.613 | 0.659 | 0.611 | 0.987 | 0.642
5 | NCI-H1734 | 0.956 | 0.913 | 0.913 | 0.846 | 0.828 | 0.714 | 0.674 | 0.694 | 0.718 | 0.961 | 0.764 | 0.822 | 0.858 | 0.873 | 0.366 | 0.37 | 0.379 | 0.369 | 0.656 | 0.353
6 | NCI-H1755 | 1.11 | 1.04 | 0.993 | 1.02 | 1.05 | 0.83 | 0.883 | 0.764 | 0.841 | 1.08 | 1.08 | 1 | 0.99 | 1.06 | 0.457 | 0.465 | 0.485 | 0.439 | 0.783 | 0.428
7 | NCI-H1792 | 0.548 | 0.594 | – | 0.438 | 0.635 | 0.493 | 0.38 | 0.44 | 0.44 | 0.609 | 0.611 | – | 0.629 | 0.594 | 0.659 | 0.606 | 0.581 | 0.596 | – | –
8 | NCI-H1793 | 0.977 | 0.822 | – | 1.01 | 1.17 | 0.38 | 0.431 | 0.438 | 0.381 | 0.446 | 0.326 | – | 0.472 | 0.545 | 0.338 | 0.304 | 0.34 | 0.328 | – | –
9 | NCI-H1915 | 1.15 | 1.09 | 1.14 | 1.08 | 1.13 | 0.348 | 0.307 | 0.297 | 0.342 | 0.782 | 0.776 | 0.83 | 0.797 | 0.804 | 0.612 | 0.515 | 0.554 | 0.587 | 0.318 | 0.466
10 | NCI-H1944 | 1.15 | 1.17 | – | 1.21 | 1.18 | 0.437 | 0.383 | 0.44 | 0.446 | 1.1 | 0.998 | – | 1.04 | 0.927 | 0.351 | 0.285 | 0.326 | 0.351 | 0.455 | 0.276
11 | NCI-H1975 | 0.849 | 0.805 | 0.871 | 0.831 | 0.813 | 0.371 | 0.358 | 0.329 | 0.33 | 1.08 | 0.913 | 1.05 | 0.982 | 0.976 | 0.585 | 0.585 | 0.478 | 0.523 | 0.262 | 0.38
12 | NCI-H1993 | 0.719 | 0.72 | – | 0.648 | 0.773 | 0.519 | 0.496 | 0.518 | 0.573 | 0.969 | 0.891 | – | 1.03 | 0.986 | 0.703 | 0.67 | 0.623 | 0.676 | – | –
13 | NCI-H2009 | 1.19 | 1.17 | 1.19 | 1.1 | 1.18 | 0.285 | 0.278 | 0.259 | 0.282 | 1.18 | 1.15 | 1.19 | 1.14 | 1.1 | 0.202 | 0.184 | 0.202 | 0.191 | 0.287 | 0.136
14 | NCI-H2023 | 0.686 | 0.581 | 0.662 | 0.735 | 0.569 | 0.608 | 0.473 | 0.47 | 0.573 | 1.03 | 0.986 | 0.989 | 0.948 | 0.92 | 0.34 | 0.354 | 0.378 | 0.353 | 0.607 | 0.401
15 | NCI-H2085 | 0.985 | 1 | 0.795 | 0.803 | 0.902 | 0.518 | 0.61 | 0.554 | 0.761 | 1.16 | 1.15 | 1.12 | 1.15 | 1.21 | 0.486 | 0.476 | 0.522 | 0.496 | 0.581 | 0.433
16 | NCI-H2087 | 0.953 | 0.957 | 0.885 | 0.737 | 0.818 | 0.194 | 0.164 | 0.22 | 0.202 | 1.13 | 0.99 | 1.02 | 0.926 | 0.779 | 0.224 | 0.278 | 0.261 | 0.287 | – | –
17 | NCI-H2126 | 0.807 | 0.663 | 0.686 | 0.758 | 0.804 | 0.557 | 0.57 | 0.555 | 0.605 | 0.888 | 0.837 | 0.829 | 0.899 | 0.913 | 0.377 | 0.369 | 0.362 | 0.37 | 0.565 | 0.336
